Experiment [1] deals with recombinant human SGK-1 enzyme. The experiment can be described thus: Enzymatic activity assay: SGK-1 substrate peptide phosphorylation (Caliper lab-chip mobility shift). Type of experiment: biochemical. Particulars: peptide substrate 1 μM, ATP 10 μM, 60 min at 37° C., read-out: IC50 values for inhibition of SGK-1 enzymatic activity.
For experiment [2], the system named is SGK-1 dependent phosphorylation of GSK3beta in U2OS cells. Nature of the experiment: SGK-1 dependent phosphorylation of GSK3beta in U2OS cells overexpressing recombinant SGK-1 and GSK3beta. Format: cell-based, human. To be noted: read-out: IC50 values for inhibition of SGK-1 dependent phosphorylation of GSK3beta in U2OS cells.
In experiment [3] the target is recombinant human SGK-1 enzyme (Homo sapiens, UniProt O00141). Nature of the experiment: Enzymatic activity assay: SGK-1 substrate peptide phosphorylation (Caliper lab-chip mobility shift). Particulars: peptide substrate 1 μM, ATP 10 μM, 60 min at 37° C., read-out: IC50 values for inhibition of SGK-1 enzymatic activity. Type of experiment: biochemical.
Sequence of recombinant human SGK-1 enzyme (Homo sapiens, UniProt O00141) (O00141 whole entry, looked up): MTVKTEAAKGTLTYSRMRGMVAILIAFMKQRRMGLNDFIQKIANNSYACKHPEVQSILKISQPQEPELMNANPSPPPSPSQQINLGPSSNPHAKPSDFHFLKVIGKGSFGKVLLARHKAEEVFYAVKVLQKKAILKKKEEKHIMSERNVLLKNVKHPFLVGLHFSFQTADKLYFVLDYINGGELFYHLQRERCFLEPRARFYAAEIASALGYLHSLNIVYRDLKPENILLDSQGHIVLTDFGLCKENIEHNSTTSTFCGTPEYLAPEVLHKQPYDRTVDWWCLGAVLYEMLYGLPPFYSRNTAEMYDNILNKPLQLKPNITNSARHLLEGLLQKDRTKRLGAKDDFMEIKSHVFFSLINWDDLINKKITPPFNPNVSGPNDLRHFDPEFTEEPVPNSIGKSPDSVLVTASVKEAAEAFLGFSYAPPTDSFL
For experiment [4], the system named is SGK-1 dependent activation of ENaC-currents in A6 cell monolayers. Nature of the experiment: Functional electrophysiological assay (Ussing chamber): SGK-1 dependent activation of ENaC-currents in A6 cell monolayers. Format: cell-based, Xenopus laevis. To be noted: hypoosmotic shock 45 min, amiloride-sensitive ΔI'sc, read-out: IC50 values for inhibition of SGK-1 dependent activation of ENaC-currents in A6 cell monolayers. The protocol: C) Functional Electrophysiological Assay for Determination of SGK-1 Dependent Activation of ENaC-Currents in A6 Cell Monolayers
Cells were grown in cell culture flasks (Nunc) at 28° C. in a humidified atmosphere with 4% CO2. The culture medium contained a 7:3 mixture of Leibovitz's L-15 (Sigma-Aldrich)/Coon's (Sigma-Aldrich) media supplemented with 10% fetal bovine serum (PAA), 20% sterile water, 25 mM NaHCO3 (Sigma-Aldrich), 100 U/ml penicillin (PAA) and 100 μg/ml streptomycin (PAA). The osmolality of the medium was 270 mOsml/kg H2O). Cells were detached with accutase (PAA) and seeded for electrophysiological measurements into transwell filter inserts (polyester 0.4 μm pore size, Corning) at a density of 0.4×10^6 cells/filter. Cells were cultivated for 7-10 days, and confluent A6 cell monolayers were identified by repetitive resistance measurements in cell culture medium using an EVOM^2 ohmmeter (World Precision Instruments). Monolayers with a resistance of >10 kOhm were considered confluent. Filters with confluent A6 cells were transferred into a continuously perfused Ussing-chamber, and electrophysiological parameters were measured under open circuit conditions using a transepithelial clamp amplifier (EP Design). Short circuit current (I′sc) was calculated by Ohm's law. […] The pH was adjusted to 8.2. All measurements were done at room temperature.
To evaluate the effects of SGK inhibitors on ENaC-mediated transepithelial currents, A6 monolayers were first equilibrated for 5 min with isoosmotic Ringer solution from both the luminal and basolateral side of the cell layer. Amiloride was applied to the luminal site to establish the basal ENaC-dependent current (I′scbasal). Cell layers were then perfused from the basolateral side for 10 min with compounds in isotonic buffer or control isotonic buffer. SGK signaling leading to increased ENaC activity and subsequent increase in I′sc was stimulated by application of hypoosmotic Ringer-solution for 45 min to both sides of the A6 cell layer. ENaC-dependent I′sc after the hypoosmotic shock (I′schypo) was determined by application of amiloride at the end of the experiment. Total changes of amiloride-sensitive Isc was calculated as ΔI′sc=I′schypo−I′scbasal. […] The inhibition of ΔI′sc by the test compounds was determined relative to the ΔI′sc measured with control monolayers which were not treated with the test compound.

Experiment [5] deals with collagen type X (Col10a1) expression in mouse chondrogenic ATDC5 cells. Nature of the experiment: Chondrocyte hypertrophic differentiation in mouse chondrogenic ATDC5 cells (collagen type X expression). Format: cell-based. To be noted: Col10a1 expression by quantitative real-time PCR after two weeks of cell culture; read-out: IC50 values for the inhibition of collagen type X expression in mouse chondrogenic ATDC5 cells. On the technique in general: Quantitative PCR measures a nucleic acid by following its amplification.

Like-named read-outs stand apart in the source and are kept apart here.

In the case of `O=S(=O)(Nc1ccc(-c2cc3[nH]ncc3cn2)cc1)c1cc(Cl)ccc1Cl` [Example 563, 2,5-Dichloro-N-[4-(1H-pyrazolo[4,3-c]pyridin-6-yl)phenyl]benzenesulfonamide], the concentration for half-maximal inhibition (IC50) in experiment [1] amounted to 52 nM.

As for `Nc1n[nH]c2cc(-c3ccc(NS(=O)(=O)c4cc(Cl)c(F)cc4F)cc3)nc(O)c12` [Example 549, N-[4-(3-Amino-4-hydroxy-1H-pyrazolo[4,3-c]pyridin-6-yl)phenyl]-5-chloro-2,4-difluoro-benzenesulfonamide], the IC50 in experiment [1] is 7.7 nM.

For the compound `Cc1ccc(C#N)c(S(=O)(=O)Nc2ccc(-c3cc4[nH]nc(C)c4cn3)cc2)c1` [Example 561, 2-Cyano-5-methyl-N-[4-(3-methyl-1H-pyrazolo[4,3-c]pyridin-6-yl)phenyl]benzenesulfonamide], the IC50 came to 7.8 nM in experiment [1] and 2700 nM in experiment [2] (Homo sapiens, U2OS, 6 h).

Regarding `Cc1ccc(C#N)c(S(=O)(=O)Nc2ccc(-c3nc(C)c4c(N)n[nH]c4n3)cc2)c1` [Example 468], the half-inhibitory concentration (IC50) in experiment [3] is less than 1.5 nM; in experiment [4], 610 nM; in experiment [2] (U2OS cells, 6 h incubation, ratio of phosphorylated GSK3beta to total GSK3beta), 230 nM; in experiment [5], 870 nM.

Usually IC50 stands for the midpoint of a concentration-inhibition curve.

The values are drawn from patent publication US9718825B2, “N-(4-(azaindazol-6-yl)-phenyl)-sulfonamides and their use as pharmaceuticals” (priority 2013, dated 2017).
